Reference: patent US4740498A, “Fibronectin preparations” (Green Cross Corporation, priority 1984, dated 1988)

Tested on: corneal epithelium of rabbits
Experiment: Therapeutic effect in model of corneal disturbance (refrigeration trauma on the corneal epithelium)
Type: in vivo
Conditions: 400 μg/ml into the eyes, FN = eye drops of Example 2, albumin = control
Method: The therapeutic effect of the FN preparations of the present invention was examined using a model of corneal disturbance in rabbits. The model was prepared by applying liquid nitrogen to the eyes of rabbits to cause refrigeration trauma on the corneal epithelium. The FN eye drops prepared in Example 2 were administered into the eyes thus suffering from corneal disturbance at a dose of 400 μg-FN/ml, and the wound surface area was measured with the passage of time. As a control, 400 μg/ml of albumin was used.

Substance: Albumin
- Wound Surface Area, 0 Day (0 Day): 45 mm^2
- Wound Surface Area, 1 Day (1 Day): 31 mm^2
- Wound Surface Area, 2 Days (2 Days): 33 mm^2
- Wound Surface Area, 3 Days (3 Days): 25 mm^2
- Wound Surface Area, 4 Days (4 Days): 14 mm^2
